Columns and labels:
Test in all cases: relative viability (nuclei count vs DMSO), 5 days (fraction); higher = more cells survive
SW 900 = test system: SW 900
How it was run: (§1)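 A single step with final 0.05% Triton X-100, 1% formaldehyde and 1 ug/ml Hoechst fixed the cells and stained nuclei 5 days after treatment. Lung cancer cell lines in 1536-well plates had been treated by pin tool the day after seeding with one drug alone or a fixed anchor-drug dose plus five library-drug doses (not always all listed) in √10 steps, and nuclei were counted on 4× images. Relative viability is the ratio of nuclei in treated wells to nuclei in vehicle wells, taken as the median of duplicate plates.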

EKVX = test system: EKVX
How it was run: as §1

COR-L23 = test system: COR-L23
How it was run: as §1

SW 1573 = test system: SW 1573
How it was run: as §1

NCI-H1793 = test system: NCI-H1793
How it was run: as §1

HCC-44 = test system: HCC-44
How it was run: as §1

NCI-H460 = test system: NCI-H460
How it was run: as §1

LK-2 = test system: LK-2
How it was run: as §1

NCI-H2228 = test system: NCI-H2228
How it was run: as §1

NCI-H520 = test system: NCI-H520
How it was run: as §1

EMC-BAC-2 = test system: EMC-BAC-2
How it was run: as §1

LXF-289 = test system: LXF-289
How it was run: as §1

NCI-H1650 = test system: NCI-H1650
How it was run: as §1

NCI-H1651 = test system: NCI-H1651
How it was run: as §1

NCI-H1915 = test system: NCI-H1915
How it was run: as §1

NCI-H2347 = test system: NCI-H2347
How it was run: as §1

NCI-H661 = test system: NCI-H661
How it was run: as §1

A-427 = test system: A-427
How it was run: as §1

NCI-H2087 = test system: NCI-H2087
How it was run: as §1

BEN = test system: BEN
How it was run: as §1

EPLC-272H = test system: EPLC-272H
How it was run: as §1

NCI-H358 = test system: NCI-H358
How it was run: as §1

COCC1(CO)C(=O)C2CCN1CC2 (configuration not stated) [PRIMA-1MET] + COc1cccc2cc(-c3nc([C@H]4CC[C@H](C(=O)O)CC4)n4ncnc(N)c34)[nH]c12 [OSI-027] (partner 0.5 µM)
relative viability (SW 900; first compound 0.2 µM): 0.54 | relative viability (SW 900; first compound 0.6325 µM): 0.451 | relative viability (SW 900; first compound 2 µM): 0.471 | relative viability (SW 900; first compound 6.325 µM): 0.362 | relative viability (SW 900; first compound 20 µM): 0.0628 | relative viability (EKVX; first compound 0.2 µM): 0.915 | relative viability (EKVX; first compound 0.6325 µM): 0.723 | relative viability (EKVX; first compound 6.325 µM): 0.78 | relative viability (EKVX; first compound 20 µM): 0.695 | relative viability (COR-L23; first compound 0.2 µM): 0.892 | relative viability (COR-L23; first compound 0.6325 µM): 0.679 | relative viability (COR-L23; first compound 2 µM): 0.728 | relative viability (COR-L23; first compound 6.325 µM): 0.744 | relative viability (COR-L23; first compound 20 µM): 0.0162 | relative viability (SW 1573; first compound 0.2 µM): 0.622 | relative viability (SW 1573; first compound 0.6325 µM): 0.482 | relative viability (SW 1573; first compound 2 µM): 0.597 | relative viability (SW 1573; first compound 6.325 µM): 0.0316 | relative viability (SW 1573; first compound 20 µM): 0.032 | relative viability (NCI-H1793; first compound 0.2 µM): 0.255 | relative viability (NCI-H1793; first compound 0.6325 µM): 0.221 | relative viability (NCI-H1793; first compound 6.325 µM): 0.298 | relative viability (NCI-H1793; first compound 20 µM): 0.276 | relative viability (HCC-44; first compound 0.2 µM): 0.584 | relative viability (HCC-44; first compound 0.6325 µM): 0.472 | relative viability (HCC-44; first compound 2 µM): 0.383 | relative viability (HCC-44; first compound 6.325 µM): 0.397 | relative viability (HCC-44; first compound 20 µM): 0.485 | relative viability (NCI-H460; first compound 0.2 µM): 0.653 | relative viability (NCI-H460; first compound 0.6325 µM): 0.624 | relative viability (NCI-H460; first compound 2 µM): 0.487 | relative viability (NCI-H460; first compound 6.325 µM): 0.323 | relative viability (NCI-H460; first compound 20 µM): 0.0164 | relative viability (LK-2; first compound 0.2 µM): 0.201 | relative viability (LK-2; first compound 0.6325 µM): 0.186 | relative viability (LK-2; first compound 2 µM): 0.155 | relative viability (LK-2; first compound 6.325 µM): 0.149 | relative viability (LK-2; first compound 20 µM): 0.118 | relative viability (NCI-H2228; first compound 0.2 µM): 0.578 | relative viability (NCI-H2228; first compound 0.6325 µM): 0.462 | relative viability (NCI-H2228; first compound 2 µM): 0.442 | relative viability (NCI-H2228; first compound 6.325 µM): 0.481 | relative viability (NCI-H2228; first compound 20 µM): 0.0285 | relative viability (NCI-H520; first compound 0.2 µM): 0.31 | relative viability (NCI-H520; first compound 0.6325 µM): 0.213 | relative viability (NCI-H520; first compound 2 µM): 0.169 | relative viability (NCI-H520; first compound 6.325 µM): 0.197 | relative viability (NCI-H520; first compound 20 µM): 0.143 | relative viability (EMC-BAC-2; first compound 0.2 µM): 0.509 | relative viability (EMC-BAC-2; first compound 0.6325 µM): 0.385 | relative viability (EMC-BAC-2; first compound 6.325 µM): 0.366 | relative viability (EMC-BAC-2; first compound 20 µM): 0.322 | relative viability (LXF-289; first compound 0.2 µM): 0.889 | relative viability (LXF-289; first compound 0.6325 µM): 0.803 | relative viability (LXF-289; first compound 2 µM): 0.527 | relative viability (LXF-289; first compound 6.325 µM): 0.874 | relative viability (LXF-289; first compound 20 µM): 0.759 | relative viability (NCI-H1650; first compound 0.2 µM): 0.742 | relative viability (NCI-H1650; first compound 0.6325 µM): 0.664 | relative viability (NCI-H1650; first compound 2 µM): 0.483 | relative viability (NCI-H1650; first compound 6.325 µM): 0.636 | relative viability (NCI-H1650; first compound 20 µM): 0.0483 | relative viability (NCI-H1651; first compound 0.2 µM): 0.801 | relative viability (NCI-H1651; first compound 0.6325 µM): 0.756 | relative viability (NCI-H1651; first compound 2 µM): 0.636 | relative viability (NCI-H1651; first compound 6.325 µM): 0.669 | relative viability (NCI-H1651; first compound 20 µM): 0.701 | relative viability (NCI-H1915; first compound 0.2 µM): 0.475 | relative viability (NCI-H1915; first compound 0.6325 µM): 0.582 | relative viability (NCI-H1915; first compound 6.325 µM): 0.443 | relative viability (NCI-H1915; first compound 20 µM): 0.578 | relative viability (NCI-H2347; first compound 0.2 µM): 0.428 | relative viability (NCI-H2347; first compound 0.6325 µM): 0.496 | relative viability (NCI-H2347; first compound 2 µM): 0.247 | relative viability (NCI-H2347; first compound 6.325 µM): 0.336 | relative viability (NCI-H2347; first compound 20 µM): 0.311 | relative viability (NCI-H661; first compound 0.2 µM): 0.747 | relative viability (NCI-H661; first compound 0.6325 µM): 0.65 | relative viability (NCI-H661; first compound 2 µM): 0.617 | relative viability (NCI-H661; first compound 6.325 µM): 0.749 | relative viability (NCI-H661; first compound 20 µM): 0.622 | relative viability (A-427; first compound 0.2 µM): 0.284 | relative viability (A-427; first compound 0.6325 µM): 0.444 | relative viability (A-427; first compound 2 µM): 0.389 | relative viability (A-427; first compound 6.325 µM): 0.263 | relative viability (A-427; first compound 20 µM): 0.369 | relative viability (NCI-H2087; first compound 0.2 µM): 0.355 | relative viability (NCI-H2087; first compound 0.6325 µM): 0.481 | relative viability (NCI-H2087; first compound 2 µM): 0.681 | relative viability (NCI-H2087; first compound 6.325 µM): 0.433 | relative viability (NCI-H2087; first compound 20 µM): 0.262 | relative viability (BEN; first compound 0.2 µM): 0.283 | relative viability (BEN; first compound 0.6325 µM): 0.304 | relative viability (BEN; first compound 6.325 µM): 0.287 | relative viability (BEN; first compound 20 µM): 0.336 | relative viability (EPLC-272H; first compound 2 µM): 0.235 | relative viability (EPLC-272H; first compound 6.325 µM): 0.27 | relative viability (EPLC-272H; first compound 20 µM): 0.0689 | relative viability (NCI-H358; first compound 0.2 µM): 0.734 | relative viability (NCI-H358; first compound 2 µM): 0.653 | relative viability (NCI-H358; first compound 6.325 µM): 0.954 | relative viability (NCI-H358; first compound 20 µM): 0.365
